Source: ChEMBL document CHEMBL1143489, “Design, synthesis, and enzymatic property of a sulfur-substituted analogue of trigalacturonic acid” (Bioorg Med Chem Lett, 2005)

Target: T1, Endopolygalactyuronase (Chondrostereum purpureum, UniProt P79074)
T1 sequence (P79074 whole entry): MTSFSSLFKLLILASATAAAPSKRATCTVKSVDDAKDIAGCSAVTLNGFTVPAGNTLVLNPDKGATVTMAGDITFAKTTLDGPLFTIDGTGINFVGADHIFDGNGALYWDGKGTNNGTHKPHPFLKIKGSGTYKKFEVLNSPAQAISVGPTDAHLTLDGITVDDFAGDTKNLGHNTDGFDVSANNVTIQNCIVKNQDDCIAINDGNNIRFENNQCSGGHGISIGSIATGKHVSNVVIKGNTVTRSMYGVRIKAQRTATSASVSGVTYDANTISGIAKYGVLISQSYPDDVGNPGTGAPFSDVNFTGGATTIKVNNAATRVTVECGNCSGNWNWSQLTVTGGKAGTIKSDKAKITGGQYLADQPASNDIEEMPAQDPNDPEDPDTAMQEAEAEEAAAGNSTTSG
Assay: Dissociation constant against endo-polygalacturonase 1

Kd: 200 nM
SMILES: CO[C@H]1O[C@@H](C(=O)O)[C@H](S[C@H]2O[C@@H](C(=O)O)[C@H](O[C@H]3O[C@@H](C(=O)O)[C@H](O)[C@H](O)[C@@H]3O)[C@H](O)[C@@H]2O)[C@H](O)[C@@H]1O
